Where the note is “25.0 °C”, `C=CCl` gave a log10 OH rate constant (cm³/molecule/s) of -11.2. On the same count and under the same terms, with `CCc1ccccc1` the figure was -11.1. In turn, `O=[N+]([O-])OC1CCCCC1` displayed a log10 OH rate constant (cm³/molecule/s) (25.0 °C) of -11.5.

`CCC1CO1` (stereo unspecified) returned a log10 OH rate constant (cm³/molecule/s) (25.0 °C) of -11.7.

On to `CCCCCOC(C)=O`, for which, under “25.0 °C”, the log10 OH rate constant (cm³/molecule/s) was -11.1. On to `COC=O`, for which, where the note is “25.0 °C”, the log10 OH rate constant (cm³/molecule/s) was -12.6. The molecule `C=C(C)[C@H]1CC=C(C)CC1` showed a log10 OH rate constant (cm³/molecule/s) (25.0 °C) of -9.77.

The molecule `COCCCl` came in with a log10 OH rate constant (cm³/molecule/s) (25.0 °C) of -11.3. Same read-out and setting: with `CCOP(=O)(OCC)OCC` the figure was -10.3. Molecule `CO` came in with a log10 OH rate constant (cm³/molecule/s) (25.0 °C) of -12. Where the note is “25.0 °C”, `CCCCCOCCCCC` came in with a log10 OH rate constant (cm³/molecule/s) of -10.5. In the case of `CCCOCCO`, the log10 OH rate constant (cm³/molecule/s) (25.0 °C) is -10.7.

On to `CCCCO`, for which the log10 OH rate constant (cm³/molecule/s) (25.0 °C) is -11.1. As for `CCOCCO`, the log10 OH rate constant (cm³/molecule/s) (25.0 °C) is -10.8. On the same count and under the same terms, with `CC(C)(C)CO[N+](=O)[O-]` the figure was -12.1. In turn, `CCCOC(=O)CC` showed a log10 OH rate constant (cm³/molecule/s) (25.0 °C) of -11.4. For the setting “25.0 °C”, `C=O` came in with a log10 OH rate constant (cm³/molecule/s) of -11. On to `CCCO`, for which the log10 OH rate constant (cm³/molecule/s) (25.0 °C) was -11.3. Regarding `CCCCCCC(C)=O`, the log10 OH rate constant (cm³/molecule/s) (25.0 °C) was -11.

`CCCC(=O)OC`: the log10 OH rate constant (cm³/molecule/s) (25.0 °C) is -11.5. Same read-out and setting: under `C1=CCCCCC1` stands -10.1. The same measure, in the same setting: with `CCCC(C)C` the figure was -11.3; with `CCC[N+](=O)[O-]`, -12.4.

Molecule `CCCCCO` showed a log10 OH rate constant (cm³/molecule/s) (25.0 °C) of -11.

On to `Clc1ccccc1-c1ccccc1`, for which, for the setting “25.0 °C”, the log10 OH rate constant (cm³/molecule/s) was -11.5. For the molecule `Cl/C=C\CCl`, the log10 OH rate constant (cm³/molecule/s) (25.0 °C) was -11. On to `CCCCOC`, for which the log10 OH rate constant (cm³/molecule/s) (25.0 °C) was -10.8. Molecule `COC(=O)C(F)(F)F` returned a log10 OH rate constant (cm³/molecule/s) (25.0 °C) of -13.3. Turning to `FC1C(F)(F)OC1(F)F`, where the note is “25.0 °C”, the log10 OH rate constant (cm³/molecule/s) was -14.6.

In turn, `Cc1ccc(O)cc1C` yielded a log10 OH rate constant (cm³/molecule/s) (25.0 °C) of -10.1. Turning to `Cc1cccc(C)c1O`, where the note is “25.0 °C”, the log10 OH rate constant (cm³/molecule/s) is -10.2. On to `C/C=C\C`, for which, where the note is “25.0 °C”, the log10 OH rate constant (cm³/molecule/s) is -10.2.

On to `Clc1cccc(-c2ccccc2)c1`, for which, where the note is “25.0 °C”, the log10 OH rate constant (cm³/molecule/s) was -11.3. Under “25.0 °C”, `O=CCl` yielded a log10 OH rate constant (cm³/molecule/s) of -12.5.

With `COP(=O)(SC)SC`, for the setting “25.0 °C”, the log10 OH rate constant (cm³/molecule/s) was -11. Regarding `CSSC`, for the setting “24.0 °C”, the log10 OH rate constant (cm³/molecule/s) is -9.64. In turn, `ClCC(Cl)Cl` displayed a log10 OH rate constant (cm³/molecule/s) (25.0 °C) of -12.7. For the molecule `FCC(F)F`, under “25.0 °C”, the log10 OH rate constant (cm³/molecule/s) was -13.7.

Where the note is “25.0 °C”, `CCCC[N+](=O)[O-]` returned a log10 OH rate constant (cm³/molecule/s) of -11.8. Turning to `FC(F)F`, the log10 OH rate constant (cm³/molecule/s) (25.0 °C) is -15.5. In turn, `CCCCOCCCC` returned a log10 OH rate constant (cm³/molecule/s) (25.0 °C) of -10.5. `C=CCC(=C)C`: the log10 OH rate constant (cm³/molecule/s) (25.0 °C) was -10.1. Molecule `CCCCCCO` had a log10 OH rate constant (cm³/molecule/s) (25.0 °C) of -10.9. Turning to `CC(C)(C)OC=O`, for the setting “25.0 °C”, the log10 OH rate constant (cm³/molecule/s) is -12.1. Take `CC(C)C(C)C(C)C`: the log10 OH rate constant (cm³/molecule/s) (25.0 °C) was -11.2. As to `C=CCC`, where the note is “25.0 °C”, the log10 OH rate constant (cm³/molecule/s) is -10.5. On the same count and under the same terms, with `CCCCCCCCCCC` the figure was -10.9; with `C=CCCC`, -10.5; with `CC(C)(C)CO`, -11.3.

Take `Cc1cccc(O)c1C`: the log10 OH rate constant (cm³/molecule/s) (25.0 °C) was -10.1.

For the setting “25.0 °C”, `C=C(C)C(=O)OCCOCC` displayed a log10 OH rate constant (cm³/molecule/s) of -10.6.

`COC` showed a log10 OH rate constant (cm³/molecule/s) (25.0 °C) of -11.5. As to `Cc1ccc(O)c(C)c1`, for the setting “25.0 °C”, the log10 OH rate constant (cm³/molecule/s) is -10.1. In turn, `CC(Cl)Cl` had a log10 OH rate constant (cm³/molecule/s) (25.0 °C) of -12.6.

Where the note is “25.0 °C”, `CC1=CCC2CC1C2(C)C` (stereo unspecified) returned a log10 OH rate constant (cm³/molecule/s) of -10.3.

Turning to `COC(F)(F)F`, the log10 OH rate constant (cm³/molecule/s) (25.0 °C) was -13.7. `FC(Cl)C(F)(F)F` (stereo unspecified) registered a log10 OH rate constant (cm³/molecule/s) (25.0 °C) of -14. In the case of `FC(F)OCC(F)(F)F`, the log10 OH rate constant (cm³/molecule/s) (25.0 °C) is -13.9.

With `COC(C)(C)C`, the log10 OH rate constant (cm³/molecule/s) (25.0 °C) is -11.5.

For `C=CC#N`, the log10 OH rate constant (cm³/molecule/s) (25.0 °C) was -11.4. Consider `COCCBr`, for which the log10 OH rate constant (cm³/molecule/s) (25.0 °C) is -11.2.
